Numbers after ± are expanded uncertainties.
Test: wn = mass fraction of the nth substance listed
Conditions: 101.3 kPa, Liquid, Pycnometric method

mass density (283.15 K, w1 = 0.08506) [kg/m3]	mass density (293.15 K, w1 = 0.1354) [kg/m3]	mass density (303.15 K, w1 = 0.21) [kg/m3]	mass density (283.15 K, w1 = 0.3211) [kg/m3]	mass density (293.15 K, w1 = 0.4232) [kg/m3]	mass density (303.15 K, w1 = 0.5289) [kg/m3]	SMILES
1034 ± 14	1051 ± 14	1061 ± 14	–	–	–	O=C1OC(=O)c2ccccc21 [isobenzofuran-1,3-dione] + C1COCCO1
–	–	–	1049 ± 14	1056 ± 14	1063 ± 14	O=Cc1ccc2ccccc2c1 [β-naphthaldehyde] + C1COCCO1
